From PubChem BioAssay (NCI)
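Tested at 5 concentrations; 48 h exposure; 96-well plates; endpoints linearly interpolated, else capped at highest concentration. GI50: concentration for 50% inhibition of growth. At the TGI there is no net growth.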

How the values were obtained:
Test in all cases: DTP human tumour cell line panel, 48 h
786-0 renal = system: 786-0 renal
A498 renal = system: A498 renal
A549 NSCLC = system: A549 NSCLC
ACHN renal = system: ACHN renal
BT-549 breast = system: BT-549 breast
CAKI-1 renal = system: CAKI-1 renal
CCRF-CEM leukemia = system: CCRF-CEM leukemia
COLO 205 colon = system: COLO 205 colon
DU-145 prostate = system: DU-145 prostate
HCC-2998 colon = system: HCC-2998 colon
HCT-116 colon = system: HCT-116 colon
HCT-15 colon = system: HCT-15 colon
HL-60(TB) leukemia = system: HL-60(TB) leukemia
HOP-62 NSCLC = system: HOP-62 NSCLC
HOP-92 NSCLC = system: HOP-92 NSCLC
HS 578T breast = system: HS 578T breast
HT29 colon = system: HT29 colon
IGROV1 ovarian = system: IGROV1 ovarian
KM12 colon = system: KM12 colon
LOX IMVI melanoma = system: LOX IMVI melanoma
M14 melanoma = system: M14 melanoma
MCF7 breast = system: MCF7 breast
MDA-MB-231 breast = system: MDA-MB-231 breast
MDA-MB-435 = system: MDA-MB-435
MOLT-4 leukemia = system: MOLT-4 leukemia
NCI-H226 lung = system: NCI-H226 lung
NCI-H23 lung = system: NCI-H23 lung
NCI-H460 lung = system: NCI-H460 lung
NCI-H522 lung = system: NCI-H522 lung
NCI/ADR-RES ovarian = system: NCI/ADR-RES ovarian
OVCAR-3 ovarian = system: OVCAR-3 ovarian
OVCAR-4 ovarian = system: OVCAR-4 ovarian
PC-3 prostate = system: PC-3 prostate
RPMI-8226 leukemia = system: RPMI-8226 leukemia
SF-268 CNS = system: SF-268 CNS
SF-295 CNS = system: SF-295 CNS
SF-539 CNS = system: SF-539 CNS
SK-MEL-2 melanoma = system: SK-MEL-2 melanoma
SK-MEL-28 melanoma = system: SK-MEL-28 melanoma
SK-MEL-5 melanoma = system: SK-MEL-5 melanoma
SK-OV-3 ovarian = system: SK-OV-3 ovarian
SN12C renal = system: SN12C renal
SNB-19 CNS = system: SNB-19 CNS
SNB-75 CNS = system: SNB-75 CNS
SR leukemia = system: SR leukemia
SW-620 colon = system: SW-620 colon
T-47D breast = system: T-47D breast
TK-10 renal = system: TK-10 renal
U251 CNS = system: U251 CNS
UACC-257 melanoma = system: UACC-257 melanoma
UACC-62 melanoma = system: UACC-62 melanoma
UO-31 renal = system: UO-31 renal

Q: How did the GI50 (786-0 renal) turn out when `COc1ccc2nc3cc(Cl)ccc3c(NCCCCCN3CCCCC3)c2c1` was run?
A: 56 nM

Q: What about the TGI (786-0 renal) of the same compound?
A: 1950 nM

Q: What about the GI50 (A498 renal) of the same compound?
A: 11.4 nM

Q: And the TGI (A498 renal)?
A: 1880 nM

Q: And the GI50 (A549 NSCLC)?
A: 68 nM

Q: What about the TGI (A549 NSCLC) of the same compound?
A: 2730 nM

Q: What about the GI50 (ACHN renal) of the same compound?
A: 44.7 nM

Q: And the TGI (ACHN renal)?
A: 2840 nM

Q: What about the GI50 (BT-549 breast) of the same compound?
A: 1720 nM

Q: What about the TGI (BT-549 breast) of the same compound?
A: 3280 nM

Q: What about the GI50 (CAKI-1 renal) of the same compound?
A: 1330 nM

Q: What about the TGI (CAKI-1 renal) of the same compound?
A: 4030 nM

Q: And the GI50 (CCRF-CEM leukemia)?
A: 73 nM

Q: What about the TGI (CCRF-CEM leukemia) of the same compound?
A: 6380 nM

Q: What about the GI50 (COLO 205 colon) of the same compound?
A: 66.8 nM

Q: And the TGI (COLO 205 colon)?
A: 2320 nM

Q: And the GI50 (DU-145 prostate)?
A: 55.8 nM

Q: And the TGI (DU-145 prostate)?
A: 2460 nM

Q: And the GI50 (HCC-2998 colon)?
A: 67.3 nM

Q: What about the TGI (HCC-2998 colon) of the same compound?
A: 2050 nM

Q: What about the GI50 (HCT-116 colon) of the same compound?
A: 43.5 nM

Q: What about the TGI (HCT-116 colon) of the same compound?
A: 1910 nM

Q: What about the GI50 (HCT-15 colon) of the same compound?
A: 41.2 nM

Q: What about the TGI (HCT-15 colon) of the same compound?
A: 1850 nM

Q: What about the GI50 (HL-60(TB) leukemia) of the same compound?
A: 1550 nM

Q: What about the TGI (HL-60(TB) leukemia) of the same compound?
A: 3540 nM

Q: And the GI50 (HOP-62 NSCLC)?
A: 65.4 nM

Q: And the TGI (HOP-62 NSCLC)?
A: 2630 nM

Q: What about the GI50 (HOP-92 NSCLC) of the same compound?
A: 1620 nM

Q: And the TGI (HOP-92 NSCLC)?
A: 4100 nM

Q: And the GI50 (HS 578T breast)?
A: 1820 nM

Q: What about the TGI (HS 578T breast) of the same compound?
A: 4500 nM

Q: What about the GI50 (HT29 colon) of the same compound?
A: 33.8 nM

Q: And the TGI (HT29 colon)?
A: 1590 nM

Q: What about the GI50 (IGROV1 ovarian) of the same compound?
A: 88.8 nM

Q: And the TGI (IGROV1 ovarian)?
A: 4100 nM

Q: What about the GI50 (KM12 colon) of the same compound?
A: 57.6 nM

Q: What about the TGI (KM12 colon) of the same compound?
A: 2700 nM

Q: What about the GI50 (LOX IMVI melanoma) of the same compound?
A: 35.5 nM

Q: What about the TGI (LOX IMVI melanoma) of the same compound?
A: 1440 nM

Q: And the GI50 (M14 melanoma)?
A: 1650 nM

Q: What about the TGI (M14 melanoma) of the same compound?
A: 3150 nM

Q: And the GI50 (MCF7 breast)?
A: 40.8 nM

Q: And the TGI (MCF7 breast)?
A: 2130 nM

Q: What about the GI50 (MDA-MB-231 breast) of the same compound?
A: 1010 nM

Q: What about the TGI (MDA-MB-231 breast) of the same compound?
A: 3100 nM

Q: And the GI50 (MDA-MB-435)?
A: 1370 nM

Q: And the TGI (MDA-MB-435)?
A: 2730 nM

Q: What about the GI50 (MOLT-4 leukemia) of the same compound?
A: 41.6 nM

Q: And the TGI (MOLT-4 leukemia)?
A: 3120 nM

Q: What about the GI50 (NCI-H226 lung) of the same compound?
A: 1100 nM

Q: What about the TGI (NCI-H226 lung) of the same compound?
A: 3330 nM

Q: What about the GI50 (NCI-H23 lung) of the same compound?
A: 1090 nM

Q: And the TGI (NCI-H23 lung)?
A: 2850 nM

Q: And the GI50 (NCI-H460 lung)?
A: 36.1 nM

Q: What about the TGI (NCI-H460 lung) of the same compound?
A: 1450 nM

Q: What about the GI50 (NCI-H522 lung) of the same compound?
A: 1440 nM

Q: And the TGI (NCI-H522 lung)?
A: 3270 nM

Q: What about the GI50 (NCI/ADR-RES ovarian) of the same compound?
A: 82.5 nM

Q: What about the TGI (NCI/ADR-RES ovarian) of the same compound?
A: 4240 nM

Q: What about the GI50 (OVCAR-3 ovarian) of the same compound?
A: 123 nM

Q: What about the TGI (OVCAR-3 ovarian) of the same compound?
A: 2240 nM

Q: What about the GI50 (OVCAR-4 ovarian) of the same compound?
A: 86 nM

Q: What about the TGI (OVCAR-4 ovarian) of the same compound?
A: 3010 nM

Q: And the GI50 (PC-3 prostate)?
A: 1070 nM

Q: And the TGI (PC-3 prostate)?
A: 4510 nM

Q: What about the GI50 (RPMI-8226 leukemia) of the same compound?
A: 1950 nM

Q: And the TGI (RPMI-8226 leukemia)?
A: 6320 nM

Q: What about the GI50 (SF-268 CNS) of the same compound?
A: 1030 nM

Q: What about the TGI (SF-268 CNS) of the same compound?
A: 2880 nM

Q: And the GI50 (SF-295 CNS)?
A: 50.2 nM

Q: What about the TGI (SF-295 CNS) of the same compound?
A: 1910 nM

Q: And the GI50 (SF-539 CNS)?
A: 55.9 nM

Q: And the TGI (SF-539 CNS)?
A: 2290 nM

Q: What about the GI50 (SK-MEL-2 melanoma) of the same compound?
A: 2220 nM

Q: What about the TGI (SK-MEL-2 melanoma) of the same compound?
A: 4040 nM

Q: What about the GI50 (SK-MEL-28 melanoma) of the same compound?
A: 1860 nM

Q: What about the TGI (SK-MEL-28 melanoma) of the same compound?
A: 3670 nM

Q: What about the GI50 (SK-MEL-5 melanoma) of the same compound?
A: 1600 nM

Q: And the TGI (SK-MEL-5 melanoma)?
A: 2960 nM

Q: And the GI50 (SK-OV-3 ovarian)?
A: 1260 nM

Q: And the TGI (SK-OV-3 ovarian)?
A: 3100 nM

Q: What about the GI50 (SN12C renal) of the same compound?
A: 76.3 nM

Q: And the TGI (SN12C renal)?
A: 4700 nM

Q: What about the GI50 (SNB-19 CNS) of the same compound?
A: 1140 nM

Q: What about the TGI (SNB-19 CNS) of the same compound?
A: 5540 nM

Q: What about the GI50 (SNB-75 CNS) of the same compound?
A: 1270 nM

Q: What about the TGI (SNB-75 CNS) of the same compound?
A: 2560 nM

Q: And the GI50 (SR leukemia)?
A: 31.4 nM

Q: And the TGI (SR leukemia)?
A: 2130 nM

Q: What about the GI50 (SW-620 colon) of the same compound?
A: 36.9 nM

Q: What about the TGI (SW-620 colon) of the same compound?
A: 2160 nM

Q: What about the GI50 (T-47D breast) of the same compound?
A: 1940 nM

Q: And the TGI (T-47D breast)?
A: 4580 nM

Q: What about the GI50 (TK-10 renal) of the same compound?
A: 1570 nM

Q: What about the TGI (TK-10 renal) of the same compound?
A: 3660 nM

Q: What about the GI50 (U251 CNS) of the same compound?
A: 1310 nM

Q: And the TGI (U251 CNS)?
A: 3100 nM

Q: What about the GI50 (UACC-257 melanoma) of the same compound?
A: 1940 nM

Q: What about the TGI (UACC-257 melanoma) of the same compound?
A: 3770 nM

Q: And the GI50 (UACC-62 melanoma)?
A: 2070 nM

Q: And the TGI (UACC-62 melanoma)?
A: 3930 nM

Q: And the GI50 (UO-31 renal)?
A: 1430 nM

Q: What about the TGI (UO-31 renal) of the same compound?
A: 3700 nM
